{"source": "paper PMC9737391", "about": "“Trifluoromethylcinnamanilide Michael Acceptors for Treatment of Resistant Bacterial Infections” (International Journal of Molecular Sciences, 2022)", "origin": "cited, not measured here", "key": {"[1]": {"tested_on": "M. tuberculosis H37Ra", "parameters": "method as in ref 26 = [26]; PMID 30087309; doi:10.3390/ijms19082318; 26. Pospisilova S. Kos J. Michnova H. Kapustikova I. Strharsky T. Oravec M. Moricz A.M. Bakonyi J. Kauerova T. Kollar P. Synthesis and spectrum of biological activities of novel N -arylcinnamamides In", "details": "average over the named compounds; cited from earlier work"}, "[2]": {"tested_on": "staphylococcal biofilm", "parameters": "method as in ref 26, 51 = [26]; PMID 30087309; doi:10.3390/ijms19082318; 26. Pospisilova S. Kos J. Michnova H. Kapustikova I. Strharsky T. Oravec M. Moricz A.M. Bakonyi J. Kauerova T. Kollar P. Synthesis and spectrum of biological activities of novel N -arylcinnamamides In || [51]; 51. Pospisilova S. Kos J. Michnova H. Strharsky T. Cizek A. Jampilek J. N -Arylcinnamamides as antistaphylococcal agents Proceedings of the 4th International Electronic Conference on Medicinal Chemist", "details": "cited from earlier work"}, "[3]": {"tested_on": "S. aureus/MRSA", "parameters": "method as in ref 26, 51 = [26]; PMID 30087309; doi:10.3390/ijms19082318; 26. Pospisilova S. Kos J. Michnova H. Kapustikova I. Strharsky T. Oravec M. Moricz A.M. Bakonyi J. Kauerova T. Kollar P. Synthesis and spectrum of biological activities of novel N -arylcinnamamides In || [51]; 51. Pospisilova S. Kos J. Michnova H. Strharsky T. Cizek A. Jampilek J. N -Arylcinnamamides as antistaphylococcal agents Proceedings of the 4th International Electronic Conference on Medicinal Chemist", "details": "cited from earlier work"}, "[4]": {"tested_on": "S. aureus ATCC 29213", "details": "MTT, cited from earlier work"}}, "note": "Where two headings read alike, the source gives them in different places.", "data": [{"smiles": "O=C(/C=C/c1ccccc1)Nc1cccc(C(F)(F)F)c1", "note": "[3a]", "values": [{"measurement": "average MIC against M. tuberculosis H37Ra", "setting": "[1]", "value": "~ 24 µM"}, {"measurement": "effect on staphylococcal biofilm", "setting": "[2]", "value": "ability to inhibit the growth of staphylococcal biofilm and disrupted mature biofilm in concentrations close to MICs"}, {"measurement": "bactericidal effect", "setting": "[3]", "value": "bactericidal effect in concentrations close to MICs"}]}, {"smiles": "O=C(/C=C/c1ccccc1)Nc1ccc(C(F)(F)F)c(F)c1", "note": "[3c]", "values": [{"measurement": "inhibition of S. aureus respiration", "setting": "[4]; at MIC value", "value": 86, "unit": "%"}]}, {"smiles": "O=C(/C=C/c1ccccc1)Nc1ccc(Cl)c(Cl)c1", "note": "[3e]", "values": [{"measurement": "average MIC against M. tuberculosis H37Ra", "setting": "[1]", "value": "~ 24 µM"}]}, {"smiles": "O=C(/C=C/c1ccc(Cl)c(Cl)c1)Nc1cc(C(F)(F)F)cc(C(F)(F)F)c1", "note": "[4f]", "values": [{"measurement": "inhibition of S. aureus respiration", "setting": "[4]; at 0.25× MIC", "value": 96, "unit": "%"}]}]}
